According to ChEMBL document CHEMBL5233228, “The cell division protein FtsZ as a cellular target to hit cystic fibrosis pathogens” (Eur J Med Chem, 2020):
Values after ≈ are worked out from the molar mass of the structure shown.

Columns and labels:
Staphylococcus aureus [1] = test: Antibacterial activity against Meticillin-Sensitive Staphylococcus aureus assessed as bacterial growth inhibtion incubated for 4 to 6 hrs by broth microdilution method; format: functional; settings: time 4-6 hrs
[2] = biological target: T1, Cell division protein FtsZ (Staphylococcus aureus, UniProt P0A031); test: Inhibition of Staphylococcus aureus recombinant FTsZ preincubated for 10 mins followed by compound addition measured after 30 mins by Cytophos phosphate assay
T1 sequence (P0A031 whole entry): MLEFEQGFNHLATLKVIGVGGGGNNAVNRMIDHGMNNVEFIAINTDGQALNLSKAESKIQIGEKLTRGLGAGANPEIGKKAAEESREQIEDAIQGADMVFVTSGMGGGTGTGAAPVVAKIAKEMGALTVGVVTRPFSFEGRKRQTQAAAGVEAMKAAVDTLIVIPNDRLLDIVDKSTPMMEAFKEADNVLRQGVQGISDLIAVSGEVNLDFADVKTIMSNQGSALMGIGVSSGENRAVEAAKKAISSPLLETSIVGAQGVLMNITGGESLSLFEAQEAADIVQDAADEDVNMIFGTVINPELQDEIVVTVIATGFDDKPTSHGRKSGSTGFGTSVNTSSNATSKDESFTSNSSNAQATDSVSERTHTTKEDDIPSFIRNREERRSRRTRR

Staphylococcus aureus [3] = test: Antibacterial activity against Meticillin-Sensitive Staphylococcus aureus assessed as bacterial growth inhibtion incubated for 24 hrs by broth microdilution method; format: functional
Staphylococcus aureus [4] = test: Antibacterial activity against Meticillin-Resistant Staphylococcus aureus assessed as bacterial growth inhibtion incubated for 24 hrs by broth microdilution method; format: functional
[5] = biological target: T2, Cell division protein FtsZ (Escherichia coli K-12, UniProt P0A9A6); test: Inhibition of Escherichia coli recombinant FTsZ incubated for 10 mins in presence of GTP by spectrofluorimeter analysis
T2 sequence (P0A9A6 whole entry): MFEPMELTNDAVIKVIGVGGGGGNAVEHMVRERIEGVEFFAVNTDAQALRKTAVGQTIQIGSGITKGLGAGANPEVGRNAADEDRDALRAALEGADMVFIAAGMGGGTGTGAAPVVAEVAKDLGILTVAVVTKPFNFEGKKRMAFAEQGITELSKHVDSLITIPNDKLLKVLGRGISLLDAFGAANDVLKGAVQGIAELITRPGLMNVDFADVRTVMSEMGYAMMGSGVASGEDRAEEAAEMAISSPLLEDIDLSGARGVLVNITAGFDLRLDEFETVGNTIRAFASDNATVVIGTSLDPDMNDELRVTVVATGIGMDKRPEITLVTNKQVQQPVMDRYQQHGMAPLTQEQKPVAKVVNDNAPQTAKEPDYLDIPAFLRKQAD

Staphylococcus aureus [6] = test: Antibacterial activity against Meticillin-Sensitive Staphylococcus aureus assessed as bacterial growth inhibtion incubated for 18 hrs by broth microdilution method; format: functional
Staphylococcus aureus [7] = test: Antibacterial activity against Meticillin-Resistant Staphylococcus aureus assessed as bacterial growth inhibtion incubated for 18 hrs by broth microdilution method; format: functional
Staphylococcus aureus [8] = test: Antibacterial activity against Meticillin-Sensitive Staphylococcus aureus assessed as bacterial growth inhibtion incubated for 14 to 16 hrs; format: functional; settings: time 14-16 hrs
Staphylococcus aureus [9] = test: Antibacterial activity against Meticillin-Resistant Staphylococcus aureus assessed as bacterial growth inhibtion incubated for 14 to 16 hrs; format: functional; settings: time 14-16 hrs
Staphylococcus aureus [10] = test: Antibacterial activity against Meticillin-Sensitive Staphylococcus aureus assessed as bacterial growth inhibtion; format: functional
Staphylococcus aureus [11] = test: Antibacterial activity against Staphylococcus aureus assessed as bacterial growth inhibition; format: functional
Macrococcus caseolyticus = test: Antibacterial activity against Macrococcus caseolyticus assessed as bacterial growth inhibition; format: functional; settings: Macrococcoides caseolyticum
Escherichia coli = test: Antibacterial activity against Escherichia coli assessed as bacterial growth inhibition; format: functional
Pseudomonas aeruginosa = test: Antibacterial activity against Pseudomonas aeruginosa assessed as bacterial growth inhibition; format: functional
Staphylococcus aureus [12] = test: Antibacterial activity against Meticillin-Sensitive Staphylococcus aureus assessed as bacterial growth inhibtion by resazurin colorimetric assay; format: functional
Staphylococcus aureus [13] = test: Antibacterial activity against Meticillin-Resistant Staphylococcus aureus assessed as bacterial growth inhibtion by resazurin colorimetric assay; format: functional
Burkholderia cepacia = test: Antibacterial activity against Burkholderia cepacia assessed as bacterial growth inhibition by checkerboard assay; format: functional
Staphylococcus aureus [14] = test: Antibacterial activity against Meticillin-Resistant Staphylococcus aureus assessed as bacterial growth inhibtion; format: functional
[15] = Inhibition of FTsZ (unknown origin)
[16] = biological target: T3, Cell division protein FtsZ (Staphylococcus aureus) (UniProt P0A031); test: Inhibition of Staphylococcus aureus recombinant FTsZ at 50 uM by GTPase activity assay relative to control
T3 sequence (whole entry): T1 sequence (P0A031 whole entry)

With `CCC(CC)c1cc([C@H]2CN3CC[C@H]2C[C@@H]3CNCc2ccco2)nc(-c2ccncc2)n1` the MIC (Staphylococcus aureus [1]) was 26.9 µM (≈ 12 µg/mL) and the IC50 [2] was 55.7 µM.

For `CN(C)CNC(=O)c1c(F)ccc(OCc2nc3cc(Cl)ccc3s2)c1F`, the MIC (Staphylococcus aureus [3]) was 0.5 µg/mL (≈ 1.21 µM) and the MIC (Staphylococcus aureus [4]) was 0.5 µg/mL (≈ 1.21 µM).

For `C[n+]1cc2c3c(ccc2c2ccc4cc5c(cc4c21)OCO5)OCO3` [SANGUINARIUM], the IC50 [5] was 3 µM.

`CCC(CC)c1cc([C@H]2CN3CC[C@H]2C[C@@H]3CNCc2ccc(CO)o2)nc(-c2ccncc2)n1` showed an MIC (Staphylococcus aureus [1]) of 50.5 µM (≈ 24 µg/mL) and an IC50 [2] of 77.2 µM.

Compound `COc1ccc2cc3[n+](cc2c1OCCCOc1ccc(Cl)cc1)CCc1cc2c(cc1-3)OCO2.[Br-]` has an MIC (Staphylococcus aureus [6]) of 2 µg/mL and an MIC (Staphylococcus aureus [7]) of 2 µg/mL.

In the case of `CCN(CC)CCNc1nc(/C=C/c2ccc(Cl)cc2)nc2cc3ccccc3cc12`, the MIC (Staphylococcus aureus [8]) is reported as 5 µg/mL (≈ 11.6 µM) and the MIC (Staphylococcus aureus [9]) is reported as 10 µg/mL (≈ 23.2 µM).

`Cc1n(Cc2ccccc2)c2ccccc2[n+]1Cc1ccc(Cl)c(Cl)c1` gave an MIC (Staphylococcus aureus [10]) of 5 µg/mL, an MIC (Staphylococcus aureus [11]) of 5 µg/mL and an MIC (Macrococcus caseolyticus) of 5 µg/mL. For the same compound, the MIC (Escherichia coli) was 5 µg/mL and the MIC (Pseudomonas aeruginosa) was 5 µg/mL.

Work on `Cc1n(Cc2ccc(Cl)c(Cl)c2)c2ccccc2[n+]1Cc1ccc(Cl)c(Cl)c1` yielded an MIC (Staphylococcus aureus [10]) of 5 µg/mL, an MIC (Staphylococcus aureus [11]) of 5 µg/mL and an MIC (Macrococcus caseolyticus) of 5 µg/mL. The MIC (Escherichia coli) was 5 µg/mL and the MIC (Pseudomonas aeruginosa) was 5 µg/mL.

Work on `CCC(CC)c1cc([C@H]2CN3CC[C@H]2C[C@@H]3CN)nc(-c2ccncc2)n1` yielded an MIC (Staphylococcus aureus [1]) of 24.6 µM (≈ 8.99 µg/mL).

Compound `COC(=O)CSc1ccc2nsnc2c1[N+](=O)[O-]` has an MIC (Staphylococcus aureus [12]) of 2 µg/mL (≈ 7.01 µM), an MIC (Staphylococcus aureus [13]) of 2 µg/mL (≈ 7.01 µM) and an MIC (Burkholderia cepacia) of 8 µg/mL.

In the case of `Cc1nc(-c2cccs2)cc([C@H]2CN3CC[C@H]2C[C@@H]3CNC(=O)CCCC(=O)O)n1`, the MIC (Staphylococcus aureus [1]) is reported as 897 µM (≈ 384 µg/mL) and the IC50 [2] is reported as 317 µM.

In the case of `Cc1ccc(/C=C/c2nc(/C=C3\Sc4ccccc4N3C)c3ccccc3[n+]2C)cc1.[I-]`, the MIC (Staphylococcus aureus [6]) is reported as 2 µg/mL and the MIC (Staphylococcus aureus [7]) is reported as 2 µg/mL.

Compound `Cc1n(Cc2ccc(Cl)cc2)c2ccccc2[n+]1Cc1ccc(Cl)cc1` has an MIC (Staphylococcus aureus [10]) of 5 µg/mL, an MIC (Staphylococcus aureus [11]) of 5 µg/mL and an MIC (Macrococcus caseolyticus) of 5 µg/mL. It also gave an MIC (Escherichia coli) of 5 µg/mL and an MIC (Pseudomonas aeruginosa) of 5 µg/mL.

`NC(=O)c1c(F)ccc(OCc2nc3cc(Cl)cnc3s2)c1F` showed an MIC (Staphylococcus aureus [10]) of 1 µg/mL (≈ 2.81 µM), an MIC (Staphylococcus aureus [14]) of 1 µg/mL (≈ 2.81 µM) and an IC50 [15] of 0.055 µg/mL (≈ 0.155 µM).

`CCC(CC)c1cc(CCN2CCCN(Cc3ccc(C(F)(F)F)cc3)CC2)nc(-c2ccncc2)n1` showed an MIC (Staphylococcus aureus [10]) of 3 µg/mL (≈ 5.86 µM), an MIC (Staphylococcus aureus [14]) of 6 µg/mL (≈ 11.7 µM) and an inhibition [16] of 20%.

For `Cc1ccc(/C=C/c2nc(/C=C3\Sc4ccccc4N3CCCN3CCC(C)CC3)c3ccccc3[n+]2C)cc1.[I-]`, the MIC (Staphylococcus aureus [6]) was 2 µg/mL and the MIC (Staphylococcus aureus [7]) was 2 µg/mL.

For `COc1ccc2cc3[n+](cc2c1OC)CCc1cc2c(cc1-3)OCO2` [BERBERINE], the IC50 [2] was 10 µM.
